pIC50: −log10 of the molar value. “And” between values parts separate entries of the source, which are not always exact repeats. Identical values can stand only once. “Also recorded” adds a separate entry of the source. Like-named read-outs stand apart in the source and are kept apart here.
Assays:
MAO-B = test system: MAO-B; parameters: method as in PMID 19168123; conditions: isolated compound at 10 µM; cited from earlier work
CYP2C8 = target: T1, CYP2C8 (Homo sapiens, UniProt P10632); assay: biochemical
T1 sequence (P10632 1-490): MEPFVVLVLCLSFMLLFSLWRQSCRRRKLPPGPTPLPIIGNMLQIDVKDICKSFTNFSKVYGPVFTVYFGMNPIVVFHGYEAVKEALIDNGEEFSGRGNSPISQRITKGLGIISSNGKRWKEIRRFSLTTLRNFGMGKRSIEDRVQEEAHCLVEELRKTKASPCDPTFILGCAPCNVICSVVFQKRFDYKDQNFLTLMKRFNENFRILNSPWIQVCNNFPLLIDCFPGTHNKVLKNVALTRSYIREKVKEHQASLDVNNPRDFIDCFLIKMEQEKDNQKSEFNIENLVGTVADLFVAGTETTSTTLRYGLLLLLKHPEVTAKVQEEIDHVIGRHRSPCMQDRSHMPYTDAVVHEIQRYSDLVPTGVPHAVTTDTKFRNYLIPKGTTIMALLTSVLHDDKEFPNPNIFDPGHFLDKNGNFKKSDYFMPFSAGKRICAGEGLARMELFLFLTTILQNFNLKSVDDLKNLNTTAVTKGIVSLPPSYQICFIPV
Description: (§1) Incubation without 30 min pre-incubation, 178.5 µL of liver microsomes working was pre-incubated in a 37 °C water bath for 30 min. After the pre-incubation, 1.5 μL of test compound or control compound working solution, 60 μL of substrate working solution, and 60 μL of NADPH working solution were added; then, the reaction mixture was mixed by pipetting up and down and then incubated at 37 °C for 10 min. Incubation with 30 min pre-incubation. Next, 1.5 μL of test compound or control compound working solutions and 60 μL of NADPH working solution were added into 178.5 μL of liver microsome working solution, then the reaction mixture was mixed by pipetting up and down and then pre-incubated at 37 °C for 30 min. […]
(§2) For competitive and time-dependent CYP inhibition, the peak area ratios (PAR) of analyte/internal standard were used to semi-quantitatively determine the concentration of acetaminophen (CYP1A2 activity), 4’-hydroxydiclofenac (CYP2C9), 4’-hydroxymephenytoin (CYP2C19), dextrorphan (CYP2D6), 1’-hydroxymidazolam (CYP3A4), 6β-hydroxytestosterone (CYP3A4), hydroxybupropion (CYP2B6), and N-desethylamodiaquine (CYP2C8), with terfenadine as the internal standard by LC-MS/MS method. The HPLC-MS system utilized an Acquity UPLC system and Sciex API 4000 mass spectrometer in ESI positive mode, with quantitation employing MRM. […]

CYP3A4 [1] = conditions: for % of Positive Control / Mean Fold Induction: human, 48 h
[2] = parameters: method as in PMID 22139684, PMID 22525439; conditions: rats, two studies; cited from earlier work
OATP1B3 = target: T2, OATP1B3 (Homo sapiens, UniProt Q9NPD5); assay: Uptake transport inhibition in HEK293-OATP1B3 cells
T2 sequence (Q9NPD5 1-702): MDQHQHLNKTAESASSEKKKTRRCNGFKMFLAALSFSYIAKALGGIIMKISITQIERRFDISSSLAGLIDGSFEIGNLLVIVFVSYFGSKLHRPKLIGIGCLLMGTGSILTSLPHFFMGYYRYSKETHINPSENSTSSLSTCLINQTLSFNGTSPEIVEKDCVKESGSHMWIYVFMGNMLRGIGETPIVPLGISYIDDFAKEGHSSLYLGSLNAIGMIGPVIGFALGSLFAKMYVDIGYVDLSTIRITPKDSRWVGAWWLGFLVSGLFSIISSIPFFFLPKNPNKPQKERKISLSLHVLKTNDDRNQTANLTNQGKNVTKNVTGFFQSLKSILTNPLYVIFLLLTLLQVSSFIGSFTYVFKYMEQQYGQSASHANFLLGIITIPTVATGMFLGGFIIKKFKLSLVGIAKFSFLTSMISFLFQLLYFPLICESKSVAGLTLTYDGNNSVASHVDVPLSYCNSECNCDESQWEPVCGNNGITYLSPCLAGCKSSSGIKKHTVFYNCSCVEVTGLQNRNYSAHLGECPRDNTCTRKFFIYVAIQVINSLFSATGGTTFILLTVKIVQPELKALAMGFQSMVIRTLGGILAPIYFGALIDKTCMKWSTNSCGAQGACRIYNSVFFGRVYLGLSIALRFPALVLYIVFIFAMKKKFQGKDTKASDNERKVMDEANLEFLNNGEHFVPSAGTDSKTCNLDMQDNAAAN
Description: HEK293-OATP1B1 and OATP1B3 cells were diluted to 1 × 10^6 cells/mL with DMEM supplemented with 1% non-essential amino acid (NEAA), 10% fetal bovine serum (FBS), 1% PS solution (100 U/mL penicillin-G and 100 μg/mL streptomycin), and seeded on a 96-well BioCoat™ poly-d-lysine plate at a density of 1 × 10^6 cells/mL. […] Once the cells were anchored on the plate, the cell culture was replaced with DMEM containing 10% FBS and 1% PS solution (100 U/mL penicillin-G and 100 μg/mL streptomycin solution) and cultured one day for the uptake and inhibition studies. The cell culture medium was removed from the 96-well plate, then rinsed twice with 0.1 mL/well of pre-warmed transport buffer. The transporter cells containing pre-incubation solution were pre-incubated at 37 °C for 30 min. Then the pre-incubation solution was removed and replaced with 0.1 mL/well of dosing solution containing a substrate, respectively (blank transporter buffer containing a substrate, transport buffer containing a substrate and PC, and transport buffer containing a substrate and salidroside). Then, the transporter cells were incubated at 37 °C for 2 min. After incubation, all solutions in the cells were discarded and rinsed with 0.10 mL/well of ice-cold transport buffer (4 °C) three times. […] All samples were shaken and centrifuged at 4000 rpm at 4 °C for 15 min and the supernatant was removed for future analysis by LC-MS/MS.
Enzyme activity (%) = PAR with compound/PAR vehicle × 100.

CYP3A4 [3] = conditions: human, 48 h
CYP3A4/5 = assay: in vitro; conditions: human, microsomes
Description: as §1, §2

CYP1A2 = target: T3, CYP1A2 (Homo sapiens, UniProt P05177); assay: CYP direct inhibition in human liver microsomes; assay type: in vitro ADME; conditions: probe phenacetin, mean of N = 2
T3 construct: Mixed human liver microsomes were purchased from BioreclamationIVT; tissue BioreclamationIVT; host or cells: mixed-donor pool of human liver microsomes (Lot ZZQ)
T3 sequence (P05177 1-516): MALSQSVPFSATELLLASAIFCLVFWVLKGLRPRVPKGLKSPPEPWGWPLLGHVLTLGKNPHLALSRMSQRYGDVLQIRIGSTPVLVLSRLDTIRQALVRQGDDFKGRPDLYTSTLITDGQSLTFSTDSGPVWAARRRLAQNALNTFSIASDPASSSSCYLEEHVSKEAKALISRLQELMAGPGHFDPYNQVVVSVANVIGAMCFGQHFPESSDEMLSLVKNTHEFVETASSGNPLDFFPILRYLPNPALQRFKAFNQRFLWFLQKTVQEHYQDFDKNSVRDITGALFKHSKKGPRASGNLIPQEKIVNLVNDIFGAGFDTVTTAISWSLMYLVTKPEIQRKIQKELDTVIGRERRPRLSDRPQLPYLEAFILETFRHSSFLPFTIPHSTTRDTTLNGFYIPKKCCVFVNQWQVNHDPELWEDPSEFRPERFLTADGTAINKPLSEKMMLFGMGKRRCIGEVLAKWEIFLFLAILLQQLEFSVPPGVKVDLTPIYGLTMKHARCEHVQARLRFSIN

MAO-A = test system: MAO-A; parameters: method as in PMID 19168123; conditions: isolated compound at 10 µM; cited from earlier work
CYP3A4 [4] = assay: in vitro; conditions: human, Mean Fold Induction

## OC[C@H]1O[C@@H](OCCc2ccc(O)cc2)[C@H](O)[C@@H](O)[C@@H]1O [Salidroside]
MAO-B
  inhibition of MAO-B: 35.8%
CYP2C8
  pIC50: < 4.30
CYP3A4 [1]; CYP3A4, Lot# SNP, 0.1 µM, N = 3
  Mean Enzyme Activity: 1.82 pmol/10^6 cells/min
CYP3A4 [1]; 0.1 µM
  % of Positive Control: −15%
  Mean Fold Induction: 2.07 fold
CYP3A4 [1]; 1 µM
  % of Positive Control: −26%
  Mean Fold Induction: 1.55 fold
CYP3A4 [1]; 10 µM
  % of Positive Control: −14%
  Mean Fold Induction: 2.13 fold
[2]
  percentage recovery of an IV dose as unchanged in the urine: 53.7% and 64%
OATP1B3
  pIC50: < 4.00
OATP1B3; 100 µM
  mean control activities (% of control activity) / inhibition of OATP1B3: unchanged; also recorded: no inhibition
CYP3A4 [3]; 3 µM
  % Positive Control: 0%
CYP3A4 [3]; 10 µM
  % Positive Control: 0%
CYP3A4/5
  IC50 at 10 min: > 50 µM
CYP1A2
  pIC50: < 4.30
MAO-A
  inhibition of MAO-A: inactive
CYP3A4 [4]
  fold induction at 48 h, 1 µM: 0.7

— PMC10489644, “In Vitro Evaluation of the Potential for Drug Interactions by Salidroside” (Nutrients, 2023)
